Test results published in patent US20240360177A1, “PEPTIDES WITH ANTIMICROBIAL ACTIVITIES” (priority 2021, published 2024).
Values after ≈ are worked out from the molar mass of the structure shown. Starred links: 1 amine or outer side, 2 acyl side, 3 side chain; linkers in the order of their positions; H or OH if unused. Non-standard residues stand in square brackets, D forms with d. Residues, ends and D or L forms follow the SMILES beside them. Groups on a side chain read outwards from the residue. N(2-Aminoethyl)Gly = O=C(CN(CCN[*:3])[*:1])[*:2]; NBuGly = CCCCNCC(=O)O; Aoc = NCCCCCCCC(=O)O; AEA = NCCOCC(=O)O; Ava = NCCCCC(=O)O; βAla = NCCC(=O)O

Key:
Details in all cases: 24 h
C. parapsilosis = tested on: C. parapsilosis
C. glabrata = tested on: C. glabrata
C. dubliniensis = tested on: C. dubliniensis
C. tropicalis = tested on: C. tropicalis
C. albicans = tested on: C. albicans

MIC C. parapsilosis (C. parapsilosis) [µg/mL]	MIC C. glabrata (C. glabrata) [µg/mL]	MIC C. dubliniensis (C. dubliniensis) [µg/mL]	MIC C. tropicalis (C. tropicalis) [µg/mL]	MIC C. albicans (C. albicans) [µg/mL]	SMILES
0.5 (≈ 0.207 µM)	2 (≈ 0.828 µM)	0.5 (≈ 0.207 µM)	0.5 (≈ 0.207 µM)	0.5 (≈ 0.207 µM)	N=C(N)NCCC[C@H](NC(=O)[C@@H](CCCNC(=N)N)NC(=O)[C@H](CCCNC(=N)N)NC(=O)[C@@H](CCCNC(=N)N)NC(=O)CCNC(=O)[C@H](CCCNC(=N)N)NC(=O)[C@@H](CCCNC(=N)N)NC(=O)[C@H](CCCNC(=N)N)NC(=O)[C@@H](CCCNC(=N)N)NC(=O)CCNC(=O)[C@@H](CCCNC(=N)N)NC(=O)[C@H](CCCNC(=N)N)NC(=O)[C@@H](CCCNC(=N)N)NC(=O)CCNC(=O)[C@H](CCCNC(=N)N)NC(=O)[C@H](CCCNC(=N)N)NC(=O)[C@@H](N)CCCNC(=N)N)C(N)=O [SEQ ID NO: 9, RRR-(Apr)-rRr-(Apr)-rRrR-(Apr)-rRrR-NH2] (H-RRR[βAla][dR]R[dR][βAla][dR]R[dR]R[βAla][dR]R[dR]R-NH2)
0.5 (≈ 0.207 µM)	2 (≈ 0.828 µM)	0.5 (≈ 0.207 µM)	0.5 (≈ 0.207 µM)	0.5 (≈ 0.207 µM)	N=C(N)NCCC[C@@H](N)C(=O)N[C@@H](CCCNC(=N)N)C(=O)N[C@H](CCCNC(=N)N)C(=O)NCCC(=O)N[C@@H](CCCNC(=N)N)C(=O)N[C@@H](CCCNC(=N)N)C(=O)N[C@@H](CCCNC(=N)N)C(=O)NCCC(=O)N[C@H](CCCNC(=N)N)C(=O)N[C@@H](CCCNC(=N)N)C(=O)N[C@H](CCCNC(=N)N)C(=O)N[C@@H](CCCNC(=N)N)C(=O)NCCC(=O)N[C@H](CCCNC(=N)N)C(=O)N[C@@H](CCCNC(=N)N)C(=O)N[C@H](CCCNC(=N)N)C(=O)N[C@@H](CCCNC(=N)N)C(N)=O [SEQ ID NO: 10, rRr-(Apr)-RRR-(Apr)-rRrR-(Apr)-rRrR-NH2] (H-[dR]R[dR][βAla]RRR[βAla][dR]R[dR]R[βAla][dR]R[dR]R-NH2)
0.5 (≈ 0.207 µM)	>32	0.5 (≈ 0.207 µM)	2 (≈ 0.828 µM)	1 (≈ 0.414 µM)	N=C(N)NCCC[C@@H](N)C(=O)N[C@@H](CCCNC(=N)N)C(=O)N[C@H](CCCNC(=N)N)C(=O)NCCC(=O)N[C@H](CCCNC(=N)N)C(=O)N[C@@H](CCCNC(=N)N)C(=O)N[C@H](CCCNC(=N)N)C(=O)NCCC(=O)N[C@@H](CCCNC(=N)N)C(=O)N[C@@H](CCCNC(=N)N)C(=O)N[C@@H](CCCNC(=N)N)C(=O)N[C@@H](CCCNC(=N)N)C(=O)NCCC(=O)N[C@H](CCCNC(=N)N)C(=O)N[C@@H](CCCNC(=N)N)C(=O)N[C@H](CCCNC(=N)N)C(=O)N[C@@H](CCCNC(=N)N)C(N)=O [SEQ ID NO: 11, rRr-(Apr)-rRr-(Apr)-RRRR-(Apr)-rRrR-NH2] (H-[dR]R[dR][βAla][dR]R[dR][βAla]RRRR[βAla][dR]R[dR]R-NH2)
0.5 (≈ 0.207 µM)	>32	0.5 (≈ 0.207 µM)	1 (≈ 0.414 µM)	0.5 (≈ 0.207 µM)	N=C(N)NCCC[C@@H](N)C(=O)N[C@@H](CCCNC(=N)N)C(=O)N[C@H](CCCNC(=N)N)C(=O)NCCC(=O)N[C@H](CCCNC(=N)N)C(=O)N[C@@H](CCCNC(=N)N)C(=O)N[C@H](CCCNC(=N)N)C(=O)NCCC(=O)N[C@H](CCCNC(=N)N)C(=O)N[C@@H](CCCNC(=N)N)C(=O)N[C@H](CCCNC(=N)N)C(=O)N[C@@H](CCCNC(=N)N)C(=O)NCCC(=O)N[C@@H](CCCNC(=N)N)C(=O)N[C@@H](CCCNC(=N)N)C(=O)N[C@@H](CCCNC(=N)N)C(=O)N[C@@H](CCCNC(=N)N)C(N)=O [SEQ ID NO: 12, rRr-(Apr)-rRr-(Apr)-rRrR-(Apr)-RRRR-NH2] (H-[dR]R[dR][βAla][dR]R[dR][βAla][dR]R[dR]R[βAla]RRRR-NH2)
0.5 (≈ 0.19 µM)	1 (≈ 0.38 µM)	0.5 (≈ 0.19 µM)	1 (≈ 0.38 µM)	1 (≈ 0.38 µM)	N=C(N)NCCC[C@@H](N)C(=O)N[C@@H](CCCNC(=N)N)C(=O)N[C@H](CCCNC(=N)N)C(=O)NCCCCCCCC(=O)N[C@H](CCCNC(=N)N)C(=O)N[C@@H](CCCNC(=N)N)C(=O)N[C@H](CCCNC(=N)N)C(=O)NCCCCCCCC(=O)N[C@H](CCCNC(=N)N)C(=O)N[C@@H](CCCNC(=N)N)C(=O)N[C@H](CCCNC(=N)N)C(=O)N[C@@H](CCCNC(=N)N)C(=O)NCCCCCCCC(=O)N[C@H](CCCNC(=N)N)C(=O)N[C@@H](CCCNC(=N)N)C(=O)N[C@H](CCCNC(=N)N)C(=O)N[C@@H](CCCNC(=N)N)C(=O)O [SEQ ID NO: 30, rRr-(Aoa)-rRr-(Aoa)-rRrR-(Aoa)-rRrR] (H-[dR]R[dR][Aoc][dR]R[dR][Aoc][dR]R[dR]R[Aoc][dR]R[dR]R-OH)
16 (≈ 8.34 µM)	4 (≈ 2.09 µM)	2 (≈ 1.04 µM)	2 (≈ 1.04 µM)	0.5 (≈ 0.261 µM)	CCCCN(CC(=O)N[C@H](CCCNC(=N)N)C(=O)N[C@@H](CCCNC(=N)N)C(=O)N(CCCC)CC(=O)N[C@H](CCCNC(=N)N)C(=O)N[C@@H](CCCNC(=N)N)C(=O)N[C@H](CCCNC(=N)N)C(=O)N(CCCC)CC(=O)N[C@H](CCCNC(=N)N)C(=O)N[C@@H](CCCNC(=N)N)C(=O)N[C@H](CCCNC(=N)N)C(N)=O)C(=O)[C@H](CCCNC(=N)N)NC(=O)[C@H](N)CCCNC(=N)N [SEQ ID NO: 36, rR-(ButylGly)-rR-(ButylGly)-rRr-(ButylGly)-rRr-NH2] (H-[dR]R[NBuGly][dR]R[NBuGly][dR]R[dR][NBuGly][dR]R[dR]-NH2)
1 (≈ 0.4 µM)	2 (≈ 0.799 µM)	0.5 (≈ 0.2 µM)	1 (≈ 0.4 µM)	1 (≈ 0.4 µM)	N=C(N)NCCC[C@@H](N)C(=O)N[C@@H](CCCNC(=N)N)C(=O)N[C@H](CCCNC(=N)N)C(=O)NCCNCC(=O)N[C@H](CCCNC(=N)N)C(=O)N[C@@H](CCCNC(=N)N)C(=O)N[C@H](CCCNC(=N)N)C(=O)NCCCCC(=O)N[C@H](CCCNC(=N)N)C(=O)N[C@@H](CCCNC(=N)N)C(=O)N[C@H](CCCNC(=N)N)C(=O)N[C@@H](CCCNC(=N)N)C(=O)NCCCCC(=O)N[C@H](CCCNC(=N)N)C(=O)N[C@@H](CCCNC(=N)N)C(=O)N[C@H](CCCNC(=N)N)C(=O)N[C@@H](CCCNC(=N)N)C(N)=O [SEQ ID NO: 41, rRr-(Aeg)-rRr-(Ava)-rRrR-(Ava)-rRrR-NH2] (H-[N(2-Aminoethyl)Gly]([dR-Arg-dR])[dR]R[dR][Ava][dR]R[dR]R[Ava][dR]R[dR]R-NH2)
0.5 (≈ 0.2 µM)	1 (≈ 0.4 µM)	0.5 (≈ 0.2 µM)	0.5 (≈ 0.2 µM)	1 (≈ 0.4 µM)	N=C(N)NCCC[C@@H](N)C(=O)N[C@@H](CCCNC(=N)N)C(=O)N[C@H](CCCNC(=N)N)C(=O)NCCCCC(=O)N[C@H](CCCNC(=N)N)C(=O)N[C@@H](CCCNC(=N)N)C(=O)N[C@H](CCCNC(=N)N)C(=O)NCCNCC(=O)N[C@H](CCCNC(=N)N)C(=O)N[C@@H](CCCNC(=N)N)C(=O)N[C@H](CCCNC(=N)N)C(=O)N[C@@H](CCCNC(=N)N)C(=O)NCCCCC(=O)N[C@H](CCCNC(=N)N)C(=O)N[C@@H](CCCNC(=N)N)C(=O)N[C@H](CCCNC(=N)N)C(=O)N[C@@H](CCCNC(=N)N)C(N)=O [SEQ ID NO: 42, rRr-(Ava)-rRr-(Aeg)-rRrR-(Ava)-rRrR-NH2]
0.5 (≈ 0.2 µM)	1 (≈ 0.4 µM)	0.5 (≈ 0.2 µM)	0.5 (≈ 0.2 µM)	1 (≈ 0.4 µM)	N=C(N)NCCC[C@@H](N)C(=O)N[C@@H](CCCNC(=N)N)C(=O)N[C@H](CCCNC(=N)N)C(=O)NCCCCC(=O)N[C@H](CCCNC(=N)N)C(=O)N[C@@H](CCCNC(=N)N)C(=O)N[C@H](CCCNC(=N)N)C(=O)NCCCCC(=O)N[C@H](CCCNC(=N)N)C(=O)N[C@@H](CCCNC(=N)N)C(=O)N[C@H](CCCNC(=N)N)C(=O)N[C@@H](CCCNC(=N)N)C(=O)NCCNCC(=O)N[C@H](CCCNC(=N)N)C(=O)N[C@@H](CCCNC(=N)N)C(=O)N[C@H](CCCNC(=N)N)C(=O)N[C@@H](CCCNC(=N)N)C(N)=O [SEQ ID NO: 43, rRr-(Ava)-rRr-(Ava)-rRrR-(Aeg)-rRrR-NH2]
0.5 (≈ 0.2 µM)	1 (≈ 0.4 µM)	0.5 (≈ 0.2 µM)	0.5 (≈ 0.2 µM)	1 (≈ 0.4 µM)	N=C(N)NCCC[C@@H](N)C(=O)N[C@@H](CCCNC(=N)N)C(=O)N[C@H](CCCNC(=N)N)C(=O)NCCOCC(=O)N[C@H](CCCNC(=N)N)C(=O)N[C@@H](CCCNC(=N)N)C(=O)N[C@H](CCCNC(=N)N)C(=O)NCCCCC(=O)N[C@H](CCCNC(=N)N)C(=O)N[C@@H](CCCNC(=N)N)C(=O)N[C@H](CCCNC(=N)N)C(=O)N[C@@H](CCCNC(=N)N)C(=O)NCCCCC(=O)N[C@H](CCCNC(=N)N)C(=O)N[C@@H](CCCNC(=N)N)C(=O)N[C@H](CCCNC(=N)N)C(=O)N[C@@H](CCCNC(=N)N)C(N)=O [SEQ ID NO: 47, rRr-(Aea)-rRr-(Ava)-rRrR-(Ava)-rRrR-NH2] (H-[dR]R[dR][AEA][dR]R[dR][Ava][dR]R[dR]R[Ava][dR]R[dR]R-NH2)
0.5 (≈ 0.2 µM)	1 (≈ 0.4 µM)	0.5 (≈ 0.2 µM)	0.5 (≈ 0.2 µM)	0.5 (≈ 0.2 µM)	N=C(N)NCCC[C@@H](N)C(=O)N[C@@H](CCCNC(=N)N)C(=O)N[C@H](CCCNC(=N)N)C(=O)NCCCCC(=O)N[C@H](CCCNC(=N)N)C(=O)N[C@@H](CCCNC(=N)N)C(=O)N[C@H](CCCNC(=N)N)C(=O)NCCOCC(=O)N[C@H](CCCNC(=N)N)C(=O)N[C@@H](CCCNC(=N)N)C(=O)N[C@H](CCCNC(=N)N)C(=O)N[C@@H](CCCNC(=N)N)C(=O)NCCCCC(=O)N[C@H](CCCNC(=N)N)C(=O)N[C@@H](CCCNC(=N)N)C(=O)N[C@H](CCCNC(=N)N)C(=O)N[C@@H](CCCNC(=N)N)C(N)=O [SEQ ID NO: 48, rRr-(Ava)-rRr-(Aea)-rRrR-(Ava)-rRrR-NH2] (H-[dR]R[dR][Ava][dR]R[dR][AEA][dR]R[dR]R[Ava][dR]R[dR]R-NH2)
